This is an account of results in patent US20040091935A1, “Strains of Mycoplasma hyorhinis as causative agent for systemic sclerosis” (priority 2002, published 2004).

The assay has as its system Mycoplasma hyorhinis. In words: Plaque assay of the infectious agent on Vero cell monolayers with antibiotics. In kind it is cell-based. As to conditions: ciprofloxacin 0.5 mg/ml, doxicycline 1 mg/ml, antibiotic added for 24 hours or 7 days, assay sensitivity 10 pfu/ml, FIG. 12.

“Also recorded” adds a separate entry of the source. Starred links: 1 amine or outer side, 2 acyl side, 3 side chain; linkers in the order of their positions; H or OH if unused. Positions of bridges follow the written chain, without caps; N, C: chain ends. Non-standard residues stand in square brackets, D forms with d. Residues, ends and D or L forms follow the SMILES beside them. Chains are numbered I, II in the order given. Actinocin(9to1) = Cc1c2oc3c(C)ccc(C(=O)[*:1])c3nc-2c(C(=O)[*:2])c(N)c1=O; NMeV = CN[C@H](C(=O)O)C(C)C; Sar = CNCC(=O)O

As for `Cc1c2oc3c(C)ccc(C(=O)N[C@@H]4C(=O)N[C@H](C(C)C)C(=O)N5CCC[C@H]5C(=O)N(C)CC(=O)N(C)[C@@H](C(C)C)C(=O)O[C@@H]4C)c3nc-2c(C(=O)N[C@@H]2C(=O)N[C@H](C(C)C)C(=O)N3CCC[C@H]3C(=O)N(C)CC(=O)N(C)[C@@H](C(C)C)C(=O)O[C@@H]2C)c(N)c1=O` [actinomycin D] (I: T[dV]P[Sar][NMeV] / II: T[dV]P[Sar][NMeV]; ester I:1-I:C, II:1-II:C; linker I:N-II:N via Actinocin(9to1)), the “Plaque formation induced by the infectious agent” value is recorded as “prevented plaque formation”.
With `C[C@H]1c2cccc(O)c2C(O)=C2C(=O)[C@]3(O)C(O)=C(C(N)=O)C(=O)[C@@H](N(C)C)[C@@H]3[C@@H](O)[C@@H]21` [doxicyclin] the entry was “prevented plaque formation; also recorded: inhibited”.
